According to US9611258B2, “Dual MEK/PI3K inhibitors and therapeutic methods using the same” (THE REGENTS OF THE UNIVERSITY OF MICHIGAN, priority 2013, dated 2017):

What was measured:
PI3K = PI3K lipid kinase activity, Adapta TR-FRET assay with purified enzyme; format: biochemical; details: for IC50: read-out: PI3K inhibition IC50
Protocol: (§1) Quantitation of PI3K lipid kinase activity of a present compound is determined with purified enzyme using the fluorescence-based Adapta™ TR-FRET assay from InVitrogen (Wisconsin, USA). Quantitation of MEK1 kinase activity of a present compound is determined with purified enzyme using the LanthaScreen® displacement binding assay (Tracer 236) from InVitrogen (Wisconsin, USA). Cellular screening is carried in cultured Panc-1 cells treated for 1 hour with varied doses of the test compound. Effects on pERK and pAKT expression are evaluated by immunoblotting using phospho-specific antibodies (pAKT [Ser473] and pERK1/2 [Thr202/Tyr204]) from Cell Signaling Technology.
(§2) In Vitro Biochemical and Cell-Based Assays. Detection of PI3K lipid kinase activity was conducted with purified enzyme using the fluorescence-based Adapta™ TR-FRET assay from Invitrogen (Wisconsin, USA). Detection of the MEK1 kinase activity was conducted with purified enzyme using the LanthaScreen® displacement binding assay (Tracer 236) from Invitrogen (Wisconsin, USA). Evaluation of off-target kinase activity was conducted against the kinase screening panel provided by Invitrogen (Wisconsin, USA).

pERK1/2 [Thr202/Tyr204] = assay: Cellular pERK expression by immunoblotting in Panc-1 cells; format: cell-based; details: Panc-1 cells treated for 1 hour, immunoblot
Protocol: as §1
(§3) Cells were cultured in Dulbecco's Modified Eagle's Medium (DMEM) and 10% FBS, and grown in a 37° C. incubator with 5% CO2. Cells were plated at 3×10^5 cells/well in 6 well plates, and the following day were treated for 1 hr at 37° C. Cells were lysed in 50 mM Tris, 1% NP-40, 150 mM NaCl, 10% glycerol, 1 mM EDTA with 1× protease inhibitor (complete; Roche Applied Science) and phosphatase inhibitors (PhosSTOP, Roche Applied Science). Protein concentration was determined with a Dc Protein Assay Kit (BioRad). Proteins were resolved by SDS-PAGE and transferred to nitrocellulose membranes. […]

AurB = target: T1, AurB (Homo sapiens, UniProt Q96GD4); assay: Off-target kinase selectivity panel (Invitrogen); format: biochemical; details: read-out: IC50 against AurB
T1 construct: purchased Invitrogen
Protocol: as §2

ERK = assay: Off-target kinase selectivity panel (Invitrogen); format: biochemical; details: read-out: IC50 against ERK
Protocol: as §2

EGFR = target: T2, EGFR (Homo sapiens, UniProt P00533); assay: Off-target kinase selectivity panel (Invitrogen); format: biochemical; details: read-out: IC50 against EGFR
T2 construct: purchased Invitrogen
Protocol: as §2

PKCα = target: T3, PKCα (Homo sapiens, UniProt P17252); assay: Off-target kinase selectivity panel (Invitrogen); format: biochemical; details: read-out: IC50 against PKCα
T3 construct: purchased Invitrogen
Protocol: as §2

MEK1 = MEK1 (Homo sapiens, UniProt Q02750); assay: MEK1 LanthaScreen displacement binding assay (Tracer 236) with purified enzyme; details: in vitro, read-out: MEK inhibition IC50
pAKT [Ser473] = assay: Cellular pAKT expression by immunoblotting in Panc-1 cells; format: cell-based; details: Panc-1 cells treated for 1 hour, immunoblot
Protocol: as §1, §3

PI3K isoforms = assay: PI3K isoform potency; format: biochemical
Protocol: as §2

T1 sequence (Q96GD4 whole entry): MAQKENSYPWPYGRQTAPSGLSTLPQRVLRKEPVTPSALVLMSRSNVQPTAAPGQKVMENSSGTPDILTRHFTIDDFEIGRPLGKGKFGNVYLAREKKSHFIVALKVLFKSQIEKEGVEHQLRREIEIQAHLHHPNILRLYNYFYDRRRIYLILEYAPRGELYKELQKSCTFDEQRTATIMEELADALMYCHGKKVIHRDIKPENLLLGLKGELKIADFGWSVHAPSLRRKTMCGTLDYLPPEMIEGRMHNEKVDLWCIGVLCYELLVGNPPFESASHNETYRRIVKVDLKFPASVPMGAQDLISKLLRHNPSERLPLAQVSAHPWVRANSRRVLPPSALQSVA
MEK1, sequence (Q02750 whole entry): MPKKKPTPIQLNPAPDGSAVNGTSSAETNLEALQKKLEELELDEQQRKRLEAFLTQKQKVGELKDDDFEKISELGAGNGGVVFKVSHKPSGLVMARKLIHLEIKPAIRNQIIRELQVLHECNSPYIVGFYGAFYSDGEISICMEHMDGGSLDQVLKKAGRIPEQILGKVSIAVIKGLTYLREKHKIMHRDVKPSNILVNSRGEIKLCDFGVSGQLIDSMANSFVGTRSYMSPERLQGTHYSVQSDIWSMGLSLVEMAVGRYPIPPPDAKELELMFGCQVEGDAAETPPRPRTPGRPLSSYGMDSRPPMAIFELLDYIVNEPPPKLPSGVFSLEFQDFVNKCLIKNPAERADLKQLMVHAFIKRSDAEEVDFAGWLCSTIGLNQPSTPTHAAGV
T2 sequence (P00533 25-1210): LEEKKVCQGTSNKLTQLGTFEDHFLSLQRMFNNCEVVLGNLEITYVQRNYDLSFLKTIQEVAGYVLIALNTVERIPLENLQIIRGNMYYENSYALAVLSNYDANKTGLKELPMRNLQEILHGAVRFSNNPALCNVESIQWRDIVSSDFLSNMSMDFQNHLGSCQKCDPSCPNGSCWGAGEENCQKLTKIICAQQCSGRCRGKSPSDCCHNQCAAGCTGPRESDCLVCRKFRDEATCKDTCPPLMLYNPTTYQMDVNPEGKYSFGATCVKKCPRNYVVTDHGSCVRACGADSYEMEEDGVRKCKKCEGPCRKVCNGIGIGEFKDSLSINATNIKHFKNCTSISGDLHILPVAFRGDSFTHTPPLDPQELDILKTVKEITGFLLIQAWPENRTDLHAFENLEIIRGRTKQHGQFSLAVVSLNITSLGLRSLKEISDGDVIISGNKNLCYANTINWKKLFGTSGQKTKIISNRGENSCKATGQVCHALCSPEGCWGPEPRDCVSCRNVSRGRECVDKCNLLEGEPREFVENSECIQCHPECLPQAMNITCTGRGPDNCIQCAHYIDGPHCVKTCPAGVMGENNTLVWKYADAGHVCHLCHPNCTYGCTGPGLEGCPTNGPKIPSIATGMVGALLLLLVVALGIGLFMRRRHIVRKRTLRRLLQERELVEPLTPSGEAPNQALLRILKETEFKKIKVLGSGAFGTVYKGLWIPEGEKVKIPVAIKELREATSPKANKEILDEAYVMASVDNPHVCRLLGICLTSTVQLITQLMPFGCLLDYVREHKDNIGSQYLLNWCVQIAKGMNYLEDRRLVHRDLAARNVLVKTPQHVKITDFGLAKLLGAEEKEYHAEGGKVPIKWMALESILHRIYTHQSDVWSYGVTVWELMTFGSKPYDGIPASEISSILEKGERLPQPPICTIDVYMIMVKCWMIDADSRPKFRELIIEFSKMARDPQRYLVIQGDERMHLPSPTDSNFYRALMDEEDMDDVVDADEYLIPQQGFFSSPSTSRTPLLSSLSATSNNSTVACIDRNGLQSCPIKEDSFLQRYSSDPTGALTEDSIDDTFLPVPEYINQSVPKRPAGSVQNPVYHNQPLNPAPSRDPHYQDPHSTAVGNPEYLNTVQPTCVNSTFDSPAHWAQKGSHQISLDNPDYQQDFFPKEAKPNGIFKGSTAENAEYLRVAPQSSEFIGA

Question: For FC(F)c1nc2ccccc2n1-c1nc(N2CCNCC2)nc(N2CCOCC2)n1 [MV3-42B], which IC50 (PI3K; in vitro, purified enzyme) is on record?
Answer: The IC50 was 100 nM.

Question: With O=C(CCCCC[N+](=O)[O-])N1CCN(c2nc(N3CCOCC3)nc(-n3c(C(F)F)nc4ccccc43)n2)CC1 [MV3-44B] as the molecule, how does the “PI3K inhibition IC50” value (PI3K; in vitro, purified enzyme, bound printed without a number) read?
Answer: Its value is “>μM”.

Question: Which results are given for NCCCCCC(=O)N1CCN(c2nc(N3CCOCC3)nc(-n3c(C(F)F)nc4ccccc43)n2)CC1 [MV3-46A]?
Answer: IC50 (PI3K; in vitro, purified enzyme): < 100 nM; improvement in PI3K binding affinity (PI3K; nitro group (MV3-44B) converted to amino group): 10 fold

Question: How did the “cellular inhibition of pERK expression” value (pERK1/2 [Thr202/Tyr204]) turn out when Cc1c(Cc2cccc(N(C)S(=O)(=O)CCCNCCCCCC(=O)N3CCN(c4nc(N5CCOCC5)nc(-n5c(C(F)F)nc6ccccc65)n4)CC3)c2)c(=O)oc2cc(OC(=O)N(C)C)ccc12 [MV3-65A] was run?
Answer: The value was “cellular inhibition of both pERK and pAKT expression was observed”.

Question: And the IC50 (AurB)?
Answer: The IC50 was over 10000 nM.

Question: And the IC50 (ERK)?
Answer: Its IC50 is over 10000 nM.

Question: What about the IC50 (EGFR) of the same molecule?
Answer: Its IC50 is over 10000 nM.

Question: What about the IC50 (PKCα) of the same molecule?
Answer: The IC50 was over 10000 nM.

Question: What about the IC50 (MEK1) of the same molecule?
Answer: The IC50 was 501 nM.

Question: And the “cellular inhibition of pAKT expression” value (pAKT [Ser473])?
Answer: Its value is “cellular inhibition of both pERK and pAKT expression was observed”.

Question: What about the “potency against all of the PI3K isoforms” value (PI3K isoforms) of the same molecule?
Answer: The value was “comparably potent against all of the PI3K isoforms”.

Question: And the IC50 (PI3K; in vitro, purified enzyme)?
Answer: Its IC50 is 370 nM.
